Starred links: 1 amine or outer side, 2 acyl side, 3 side chain; linkers in the order of their positions; H or OH if unused. Non-standard residues stand in square brackets, D forms with d. Residues, ends and D or L forms follow the SMILES beside them. *: point of attachment. X4 = Cc1cc(F)cc(-c2cnc(NCCNC(=O)CCOCCOCCOCCOCCC(=O)*)c(-c3nc4ccc(Cl)cc4[nH]3)c2N2CCC(N)CC2)c1; X1 = Cc1cc(F)cc(-c2cnc(NCCNC(=O)CCOCCC(=O)*)c(-c3nc4ccc(Cl)cc4[nH]3)c2N2CCC(N)CC2)c1; Dolaproine = CO[C@@H]([C@@H]1CCCN1)[C@@H](C)C(=O)O; Dil = CC[C@H](C)[C@H](NC)[C@@H](CC(=O)O)OC; PABC = O=C(OCc1ccc(N[*:1])cc1)[*:2]; X2 = C[C@@H](N*)[C@@H](O)c1ccccc1; Cya = N[C@@H](CS(=O)(=O)O)C(=O)O; Cit = NC(=O)NCCC[C@H](N)C(=O)O; NMeV = CN[C@H](C(=O)O)C(C)C

Type in all cases: cell-based
The test system of assay [1] is NCI-H524 (ATCC) human small cell lung cancer cells. To be noted: 2 h. As for the experimental part: SMDCs of the present invention were assessed in an in vitro assay evaluating the inhibition of cell proliferation. NCI-H524 (ATCC) human small cell lung cancer cells were plated in 96-well V-bottom plates (Costar) at a concentration of 5,000 cells/well. 24 h later, the cells were treated for 2 h with a SMDC. SMDC starting dose was 1 uM and two-fold serial dilutions were done for a total of 11 points. After 2 h of treatment, cells were spun down, and the drug-containing media was removed, and fresh complete media was added and used to resuspend the cells, which were spun again. After removal of the media, the cells were resuspended in complete medium and incubated for an additional 70 h. Cell proliferation was assessed using the CellTiter Glo Assay according to the standard protocol (Promega). Luminescence was measured using a TECAN plate reader. Percent proliferation inhibition was calculated using the following formula: % inhibition=(Luminescence Control−Luminescence Treatment)/Luminescence Control*100. IC50 curves were generated using the nonlinear regression analysis (four-parameter) with GraphPad Prism 9.

Assay [2] addresses T1, SST2 (Homo sapiens, UniProt P30874).
T1 construct: host or cells: PathHunter CHO-K1 SST2 cells
Nature of the assay: PathHunter CHO-K1 SST2 internalization assay. To be noted: PathHunter CHO-K1 SST2, 90 min; read-out: Internalization EC50. As for the experimental part:
SMDCs of the present invention were assessed in vitro using the human PathHunter CHO-K1 SST2 β-arrestin2 and PathHunter CHO-K1 SST2 Internalization Assays from DiscoverX. The CHO-K cells were seeded in 20 μLs of cell culture medium in a white-walled 384 well tissue culture-compatible plate at a density of 2500 cells/well. After a 48-hour incubation, cells were treated with 5 μLs of a 1:3 serially diluted SST2 SMDC prepared at 5× concentration with a final top compound concentration of 10 uM for 90 min at 37 C and in 5% CO2. 11 dilutions were tested as well as one treatment that was compound free. After incubation, the media containing treatments were discarded and 20 μL of a working solution of Beta-Glo from Promega Beta-Glo Assay System was added to each well. The plate was then incubated for 60 min at room temperature in the dark. Luminescence was measured using a Tecan plate reader. IC50 curves were generated using the nonlinear regression analysis (four-parameters) with GraphPad Prism 9. Results were the average of duplicates and are corrected for background.

Assay [3] has as its target T2, human somatostatin receptor subtype 2 (Homo sapiens, UniProt P30874).
T2 construct: expressed in transfected cells
Nature of the assay: Functional cAMP assay for SSTR2 agonists (HTRF) in CHO-K1 cells. Particulars: CHO-K1 cells stably expressing human SST2, 20 min; read-out: hSST2 cAMP Avg EC50. The procedure, abridged:
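Agonism scored as loss of NKH477 (1.6 μM)-driven cAMP, with IBMX present, after 20 min, 37° C. exposure of stably transfected CHO-K1 cells to compound dilutions (typically 0-10,000 nM). Lysates read by time-resolved FRET; cAMP interpolated from standard curve and EC50 derived.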

T1 sequence (P30874 whole entry): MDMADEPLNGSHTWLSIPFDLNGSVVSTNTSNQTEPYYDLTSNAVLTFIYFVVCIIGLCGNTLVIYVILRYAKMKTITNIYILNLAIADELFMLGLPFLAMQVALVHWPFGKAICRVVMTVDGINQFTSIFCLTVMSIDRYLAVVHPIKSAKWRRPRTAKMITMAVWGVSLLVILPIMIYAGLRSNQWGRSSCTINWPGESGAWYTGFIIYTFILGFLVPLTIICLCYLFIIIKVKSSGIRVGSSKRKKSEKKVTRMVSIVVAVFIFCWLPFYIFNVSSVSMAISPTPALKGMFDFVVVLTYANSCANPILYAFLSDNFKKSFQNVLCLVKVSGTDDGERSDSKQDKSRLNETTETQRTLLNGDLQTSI
T2 sequence (P30874 whole entry): as above

Take `CC[C@H](C)[C@@H]([C@@H](CC(=O)N1CCC[C@H]1[C@H](OC)[C@@H](C)C(=O)N[C@H](C)[C@@H](O)c1ccccc1)OC)N(C)C(=O)[C@@H](NC(=O)[C@H](C(C)C)N(C)C(=O)OCc1ccc(NC(=O)[C@H](CCCNC(N)=O)NC(=O)[C@@H](NC(=O)CCOCCC(=O)NCCNc2ncc(-c3cc(C)cc(F)c3)c(N3CCC(N)CC3)c2-c2nc3ccc(Cl)cc3[nH]2)C(C)C)c(O[C@@H]2O[C@H](CO)[C@@H](O)[C@H](O)[C@H]2O)c1)C(C)C` [Compound 134]: the concentration giving a half-maximal response (EC50) in assay [1] worked out at 3.8 nM; in assay [2], 4.6 nM; in assay [3] it was 0.18 nM.
`CC[C@H](C)[C@@H]([C@@H](CC(=O)N1CCC[C@H]1[C@H](OC)[C@@H](C)C(=O)N[C@H](C)[C@@H](O)c1ccccc1)OC)N(C)C(=O)[C@@H](NC(=O)[C@H](C(C)C)N(C)C(=O)OCc1ccc(NC(=O)[C@H](CCCNC(N)=O)NC(=O)[C@@H](NC(=O)[C@H](CCC(N)=O)NC(=O)CCOCCC(=O)NCCNc2ncc(-c3cc(C)cc(F)c3)c(N3CCC(N)CC3)c2-c2nc3ccc(Cl)cc3[nH]2)C(C)C)cc1C(=O)NCCN)C(C)C` [Compound 57]: the concentration for a half-maximal effect (EC50) came out at 15 nM in assay [1], 5.7 nM in assay [2] and 0.38 nM in assay [3].
On the same counts, the results for `CC[C@H](C)[C@@H]([C@@H](CC(=O)N1CCC[C@H]1[C@H](OC)[C@@H](C)C(=O)N[C@H](C)[C@@H](O)c1ccccc1)OC)N(C)C(=O)[C@@H](NC(=O)[C@H](C(C)C)N(C)C(=O)OCc1ccc(NC(=O)[C@H](CCCNC(N)=O)NC(=O)[C@@H](NC(=O)CCOCCOCCOCCC(=O)NCCNc2ncc(-c3cc(C)cc(F)c3)c(N3CCC(N)CC3)c2-c2nc3ccc(Cl)cc3[nH]2)C(C)C)c(O[C@@H]2O[C@H](C(=O)O)[C@@H](O)[C@H](O)[C@H]2O)c1)C(C)C` [Compound 138] are 12 nM, 5.2 nM and 0.16 nM.
Take `CC[C@H](C)[C@@H]([C@@H](CC(=O)N1CCC[C@H]1[C@H](OC)[C@@H](C)C(=O)N[C@H](C)[C@@H](O)c1ccccc1)OC)N(C)C(=O)[C@@H](NC(=O)[C@H](C(C)C)N(C)C(=O)OCc1ccc(NC(=O)[C@H](CCCNC(N)=O)NC(=O)[C@@H](NC(=O)[C@@H](CCC(=O)O)NC(=O)CCOCCC(=O)NCCNc2ncc(-c3cc(C)cc(F)c3)c(N3CCC(N)CC3)c2-c2nc3ccc(Cl)cc3[nH]2)C(C)C)cc1)C(C)C` [Compound 102] (X1-[dE]V[Cit][PABC][NMeV]V[Dil][Dolaproine]-X2): the EC50 stood at 130 nM in assay [1], 19 nM in assay [2] and 0.067 nM in assay [3].
For `COc1cc2cc(c1Cl)N(C)C(=O)CC(OC(=O)[C@@H](C)N(C)C(=O)CCSSCCC(=O)NCCNc1ncc(-c3cc(C)cc(F)c3)c(N3CCC(N)CC3)c1-c1nc3ccc(C(N)=O)cc3[nH]1)[C@]1(C)OC1[C@@H](C)C1C[C@@](O)(NC(=O)O1)[C@H](OC)/C=C/C=C(\C)C2` (stereo partly drawn) [Compound 23, (16E,18E)-11-chloro-21-hydroxy-12,20-dimethoxy-2,5,9,16-tetramethyl-8,23-dioxo-4,24-dioxa-9,22-diazatetracyclo[19.3.1.1^10,^14.0^3,^5]hexacosa-10,12,14(26),16,18-pentaen-6-yl 2-[3-({2-[(2-{[4-(4-aminopiperidin-1-yl)-3-(6-carbamoyl-1H-1,3-benzodiazol-2-yl)-5-(3-fluoro-5-methylphenyl)pyridin-2-yl]amino}ethyl)carbamoyl]ethyl}disulfanyl)-N-methylpropanamido]propanoate] the same measures were 132 nM, 245 nM and 0.66 nM.
On the same counts, the results for `CC[C@H](C)[C@@H]([C@@H](CC(=O)N1CCC[C@H]1[C@H](OC)[C@@H](C)C(=O)N[C@@H](Cc1ccccc1)C(=O)O)OC)N(C)C(=O)[C@@H](NC(=O)[C@H](C(C)C)N(C)C(=O)OCc1ccc(NC(=O)[C@H](CCCNC(N)=O)NC(=O)[C@@H](NC(=O)CCOCCOCCOCCOCCC(=O)NCCNc2ncc(-c3cc(C)cc(F)c3)c(N3CCC(N)CC3)c2-c2nc3ccc(Cl)cc3[nH]2)C(C)C)cc1)C(C)C` [Compound 42] (X4-V[Cit][PABC][NMeV]V[Dil][Dolaproine]F-OH) are 57.3 nM, 8.6 nM and 0.12 nM.
On the same counts, the results for `CC[C@H](C)[C@@H]([C@@H](CC(=O)N1CCC[C@H]1[C@H](OC)[C@@H](C)C(=O)N[C@H](C)[C@@H](O)c1ccccc1)OC)N(C)C(=O)[C@@H](NC(=O)[C@H](C(C)C)N(C)C(=O)OCc1ccc(NC(=O)[C@H](C)NC(=O)[C@@H](NC(=O)[C@H](CCC(=O)O)NC(=O)CCOCCOCCOCCOCCC(=O)NCCNc2ncc(-c3cc(C)cc(F)c3)c(N3CCC(N)CC3)c2-c2nc3ccc(Cl)cc3[nH]2)C(C)C)c(O[C@@H]2O[C@H](C(=O)O)[C@@H](O)[C@H](O)[C@H]2O)c1)C(C)C` [Compound 152] are 91 nM, 5.8 nM and 0.2 nM.
As to `CC[C@H](C)[C@@H]([C@@H](CC(=O)N1CCC[C@H]1[C@H](OC)[C@@H](C)C(=O)N[C@H](C)[C@@H](O)c1ccccc1)OC)N(C)C(=O)[C@@H](NC(=O)[C@H](C(C)C)N(C)C(=O)OCc1ccc(NC(=O)[C@H](C)NC(=O)[C@@H](NC(=O)[C@H](CCC(N)=O)NC(=O)CCOCCC(=O)NCCNc2ncc(-c3cc(C)cc(F)c3)c(N3CCC(N)CC3)c2-c2nc3ccc(Cl)cc3[nH]2)C(C)C)c(O[C@@H]2O[C@H](C(=O)O)[C@@H](O)[C@H](O)[C@H]2O)c1)C(C)C` [Compound 146], the concentration for a half-maximal effect (EC50) is 4.8 nM in assay [1], 2.1 nM in assay [2] and 0.072 nM in assay [3].
On the same counts, the results for `CC[C@H](C)[C@@H]([C@@H](CC(=O)N1CCC[C@H]1[C@H](OC)[C@@H](C)C(=O)N[C@H](C)[C@@H](O)c1ccccc1)OC)N(C)C(=O)[C@@H](NC(=O)[C@H](C(C)C)N(C)C(=O)OCc1ccc(NC(=O)[C@H](CCCNC(N)=O)NC(=O)[C@@H](NC(=O)[C@H](CCC(N)=O)NC(=O)CCOCCC(=O)NCCNc2ncc(-c3cc(C)cc(F)c3)c(N3CCC(N)CC3)c2-c2nc3ccc(Cl)cc3[nH]2)C(C)C)cc1C(=O)NC)C(C)C` [Compound 54] are 17 nM, 10 nM and 0.17 nM.
For `CC[C@H](C)[C@@H]([C@@H](CC(=O)N1CCC[C@H]1[C@H](OC)[C@@H](C)C(=O)N[C@H](C)[C@@H](O)c1ccccc1)OC)N(C)C(=O)[C@@H](NC(=O)[C@H](C(C)C)N(C)C(=O)OCc1ccc(NC(=O)[C@H](CCCNC(N)=O)NC(=O)[C@@H](NC(=O)CCOCCOCCOCCOCCNCCNc2ncc(-c3cc(C)cc(F)c3)c(N3CCC(N)CC3)c2-c2nc3ccc(Cl)cc3[nH]2)C(C)C)cc1)C(C)C` [Compound 92] the same measures were 110 nM, 27 nM and 0.56 nM.
On the same counts, the results for `CC[C@H](C)[C@@H]([C@@H](CC(=O)N1CCC[C@H]1[C@H](OC)[C@@H](C)C(=O)N[C@H](C)[C@@H](O)c1ccccc1)OC)N(C)C(=O)[C@@H](NC(=O)[C@H](C(C)C)N(C)C(=O)OCc1ccc(NC(=O)[C@H](CCCNC(N)=O)NC(=O)[C@@H](NC(=O)CCOCCOCCOCCOCCC(=O)NCCNc2ncc(-c3cc(C)cc(F)c3)c(N3CCC(N)CC3)c2-c2nc3ccc(Cl)cc3[nH]2)C(C)C)cc1C(=O)NCCN)C(C)C` [Compound 50] are 5.8 nM, 7.7 nM and 0.15 nM.
Consider `CC[C@H](C)[C@@H]([C@@H](CC(=O)N1CCC[C@H]1[C@H](OC)[C@@H](C)C(=O)N[C@H](C)[C@@H](O)c1ccccc1)OC)N(C)C(=O)[C@@H](NC(=O)[C@H](C(C)C)N(C)C(=O)OCc1ccc(NC(=O)[C@H](CCCNC(N)=O)NC(=O)[C@@H](NC(=O)[C@H](CS(=O)(=O)O)NC(=O)[C@@H](CCC(=O)O)NC(=O)CCOCCC(=O)NCCNc2ncc(-c3cc(C)cc(F)c3)c(N3CCC(N)CC3)c2-c2nc3ccc(Cl)cc3[nH]2)C(C)C)cc1)C(C)C` [Compound 106] (X1-[dE][Cya]V[Cit][PABC][NMeV]V[Dil][Dolaproine]-X2), for which the EC50 in assay [1] worked out at 460 nM; in assay [2], 16 nM; in assay [3] it was 0.25 nM.
`CC[C@H](C)[C@@H]([C@@H](CC(=O)N1CCC[C@H]1[C@H](OC)[C@@H](C)C(=O)N[C@H](C)[C@@H](O)c1ccccc1)OC)N(C)C(=O)[C@@H](NC(=O)[C@H](C(C)C)N(C)C(=O)OCc1ccc(NC(=O)[C@H](C)NC(=O)[C@@H](NC(=O)CCOCCOCCOCCOCCC(=O)NCCNc2ncc(-c3cc(C)cc(F)c3)c(N3CCC(N)CC3)c2-c2nc3ccc(Cl)cc3[nH]2)C(C)C)cc1C(=O)NCCN)C(C)C` [Compound 85]: the EC50 was determined as 2.2 nM in assay [1], 13 nM in assay [2] and 0.25 nM in assay [3].

Source of the values: patent US12134610B2, “Somatostatin subtype-2 receptor (SST2R) targeted therapeutics and uses thereof” (priority 2022, dated 2024).
